Key:
Phytophthora infestans = assay: whole plant or invertebrate; format: in vivo; conditions: for Test C rating (disease control) / Test C rating (% disease control): tomato late blight, 100 = 100% disease control; for Test C rating (disease control): 0 = no disease control relative to the controls; for Test C rating (% disease control): preventive spray, rating without asterisk; for pest or weed control at 200 µg/mL: Phytophthora infestans, in Solanum lycopersicum, read-out: Test C rating (disease control)
Septoria nodorum = assay: Test E: Septoria glume blotch, preventive spray on wheat seedlings, visual disease rating; conditions: 100 = 100% disease control; for Test E rating (disease control): Septoria glume blotch; for Test E rating (disease control) / pest or weed control at 200 µg/mL: 0 = no disease control relative to the controls; for Test E rating (% disease control): Septoria glume blotch on wheat, preventive spray, rating without asterisk; for pest or weed control at 200 µg/mL: Parastagonospora nodorum, in Triticum aestivum, read-out: Test E rating (disease control), Septoria glume blotch
Description: General protocol for preparing test suspensions for Tests A-I: the test compounds were first dissolved in acetone in an amount equal to 3% of the final volume and then suspended at the desired concentration (in ppm) in acetone and purified water (50/50 mix by volume) containing 250 ppm of the surfactant Trem® 014 (polyhydric alcohol esters). The resulting test suspensions were then used in Tests A-I. Each test was conducted in triplicate, and the results were averaged. Spraying a 200 ppm test suspension to the point of run-off on the test plants was the equivalent of a rate of about 800 g/ha. Unless otherwise indicated, the rating values indicate a 200 ppm test suspension was used. (An asterisk “*” next to the rating value indicates a 40 ppm test suspension was used.)
The test suspension was sprayed to the point of run-off on wheat seedlings. The following day the seedlings were inoculated with a spore suspension of Septoria nodorum (the causal agent of Septoria glume blotch) and incubated in a saturated atmosphere at 24° C. for 48 h, and then moved to a growth chamber at 20° C. for 9 days, after which time visual disease ratings were made.

[1] = test system: Puccinia recondita f. sp. tritici; assay: Test G: wheat leaf rust, spray after inoculation (curative) on wheat seedlings, visual disease rating; format: in vivo; conditions: 100 = 100% disease control; for Test G rating (disease control) / pest or weed control at 200 µg/mL: sprayed after inoculation, 0 = no disease control; for Test G rating (% disease control): spray after inoculation, rating without asterisk
Description: (§1) A hyphen (-) indicates no test results.

Botrytis cinerea = assay: Test A: tomato Botrytis, preventive spray on tomato seedlings, visual disease rating; conditions: 100 = 100% disease control; for Test A rating (disease control) / Test A rating (% disease control): tomato Botrytis; for Test A rating (disease control) / pest or weed control at 200 µg/mL: 0 = no disease control relative to the controls; for Test A rating (% disease control): preventive spray, 0 = no control relative to controls, rating without asterisk; for pest or weed control at 200 µg/mL: Botrytis cinerea, in Solanum lycopersicum, read-out: Test A rating (disease control), tomato Botrytis
[2] = test system: Blumeria graminis f. sp. tritici; assay: Test I: wheat powdery mildew, preventive spray on wheat seedlings, visual disease rating; conditions: 100 = 100% disease control; for Test I rating (disease control) / Test I rating (% disease control): wheat powdery mildew; for Test I rating (disease control) / pest or weed control at 200 µg/mL: 0 = no disease control relative to the controls; for Test I rating (% disease control): preventive spray, rating without asterisk; for pest or weed control at 200 µg/mL: Blumeria graminis, in Triticum aestivum, read-out: Test I rating (disease control), wheat powdery mildew
Septoria tritici = assay: Test F: wheat leaf blotch, preventive spray on wheat seedlings, visual disease rating; format: in vivo; conditions: 100 = 100% disease control; for Test F rating (disease control) / pest or weed control at 200 µg/mL: 0 = no disease control relative to the controls; for Test F rating (% disease control): preventive spray, rating without asterisk; for pest or weed control at 200 µg/mL: Zymoseptoria tritici
Description: as §1

[3] = test system: Puccinia recondita f. sp. tritici; assay: Test H: wheat leaf rust, preventive spray on wheat seedlings, visual disease rating; conditions: 100 = 100% disease control; for Test H rating (disease control) / Test H rating (% disease control): wheat leaf rust; for Test H rating (disease control): sprayed the day before inoculation; for Test H rating (disease control) / pest or weed control at 200 µg/mL: 0 = no disease control; for Test H rating (% disease control): preventive spray, rating without asterisk; for pest or weed control at 200 µg/mL: read-out: Test H rating (disease control), wheat leaf rust, sprayed the day before inoculation
Alternaria solani = assay: Test B: tomato early blight, preventive spray on tomato seedlings, visual disease rating; conditions: for Test B rating (disease control) / Test B rating (% disease control): tomato early blight, 100 = 100% disease control; for Test B rating (disease control): 0 = no disease control relative to the controls; for Test B rating (% disease control): preventive spray, rating without asterisk; for pest or weed control at 200 µg/mL: Alternaria solani, in Solanum lycopersicum, read-out: Test B rating (disease control)

Row | Structure (SMILES) | Test E rating (disease control) (Septoria nodorum) | Test G rating (disease control) [1] | Test A rating (disease control) (Botrytis cinerea) | Test I rating (disease control) [2] | Test F rating (disease control) (Septoria tritici) | Test H rating (disease control) [3] | Test B rating (disease control) (Alternaria solani) | Test C rating (% disease control) (Phytophthora infestans) | Test E rating (% disease control) (Septoria nodorum) | Test G rating (% disease control) [1] | Test A rating (% disease control) (Botrytis cinerea) | Test I rating (% disease control) [2] | Test F rating (% disease control) (Septoria tritici) | Test H rating (% disease control) [3] | Test B rating (% disease control) (Alternaria solani) | pest or weed control at 200 µg/mL (Phytophthora infestans) | pest or weed control at 200 µg/mL (Septoria nodorum) | pest or weed control at 200 µg/mL [1] | pest or weed control at 200 µg/mL [2] | pest or weed control at 200 µg/mL (Septoria tritici) | also measured
1 | Cc1nn(C)c(Nc2c(Cl)cc(Cl)cc2Cl)c1-c1ccc(F)cc1F [compound 165] | 0% | 67% | 100% | 99% | 100% | 99% | 0% |  |  |  |  |  |  |  |  |  |  |  |  |  | Test C rating (disease control) (Phytophthora infestans): 0%
2 | CCOc1ccc(-c2c(C)nn(C)c2Nc2c(Cl)cc(F)cc2Cl)c(F)c1 [compound 192] |  |  |  |  |  |  |  | 0% | 0% | 0% | 33% | 35% | 100% | 65% | 66% |  |  |  |  |  | 
3 | Cc1nn(C)c(Nc2ccc(C#N)cc2F)c1-c1c(F)cc(F)cc1F [compound 34] | 94% | 0% | 100% | 99% | 100% | 99% | 99% |  |  |  |  |  |  |  |  |  |  |  |  |  | Test C rating (disease control) (Phytophthora infestans): 9%
4 | CCOc1cc(F)c(-c2c(C)nn(C)c2Nc2c(F)cc(Cl)cc2F)c(F)c1 [compound 199] |  |  |  |  |  |  |  | 68% | 69% | 0% | 100% | 99% | 100% | 83% | 100% |  |  |  |  |  | 
5 | Cc1nn(C)c(Nc2c(F)cc(Cl)cc2F)c1-c1ccc(Cl)cc1Cl [compound 157] | 87% | 27% | 100% | 99% | 100% | 100% | 97% |  |  |  |  |  |  |  |  |  |  |  |  |  | Test C rating (disease control) (Phytophthora infestans): 0%
6 | CCOc1cc(F)c(-c2c(C)nn(C)c2Nc2c(F)cc(F)cc2Cl)c(F)c1 [compound 196] |  |  |  |  |  |  |  | 0% | 95% | 0% | 100% | 100% | 100% | 94% | 100% |  |  |  |  |  | 
7 | CCOc1cc(F)c(-c2c(C)nn(C)c2Nc2c(Cl)cc(F)cc2Cl)c(F)c1 [compound 200] |  |  |  |  |  |  |  | 31% | 0% | 0% | 98% | 79% | 100% | 86% | 97% |  |  |  |  |  | 
8 | Cc1nn(C)c(Nc2c(F)cc(Cl)cc2Br)c1-c1ccc(F)cc1Cl [compound 186] |  |  |  |  |  |  |  | 0% | 100% | 100% | 100% | 100% | 100% | 100% | 100% |  |  |  |  |  | 
9 | Cc1nn(C)c(Oc2c(F)cc(C#N)cc2F)c1-c1ccc(F)cc1F [compound 45] | 99% | 0% | 100% | 99% | 98% | 100% | 99% |  |  |  |  |  |  |  |  |  |  |  |  |  | Test C rating (disease control) (Phytophthora infestans): 0%
10 | Cc1nn(C)c(Nc2c(Cl)cc(F)cc2Cl)c1-c1ccc(F)cc1Cl [Compound 138, 4-(2-chloro-4-fluorophenyl)-N-(2,6-dichloro-4-fluorophenyl)-1,3-dimethyl-1H-pyrazol-5-amine] |  |  |  |  |  |  |  |  |  |  |  |  |  |  |  | 0% | 0% | 17% | 99% | 100% | pest or weed control at 200 µg/mL (Botrytis cinerea): 100%; pest or weed control at 200 µg/mL [3]: 100%; pest or weed control at 200 µg/mL (Alternaria solani): 66%
11 | COc1ccc(-c2c(C)nn(C)c2Nc2c(F)cc(Cl)cc2F)c(F)c1 [compound 185] |  |  |  |  |  |  |  | 0% | 60% | 0% | 100% | 100% | 100% | 99% | 99% |  |  |  |  |  | 
12 | Cc1nn(C)c(Nc2c(Cl)cc(F)cc2Cl)c1-c1c(F)cccc1F [Compound 142, N-(2,6-dichloro-4-fluorophenyl)-4-(2,6-difluorophenyl)-1,3-dimethyl-1H-pyrazol-5-amine] |  |  |  |  |  |  |  |  |  |  |  |  |  |  |  | 0% | 92% | 0% | 100% | 100% | pest or weed control at 200 µg/mL (Botrytis cinerea): 100%; pest or weed control at 200 µg/mL [3]: 100%; pest or weed control at 200 µg/mL (Alternaria solani): 96%
13 | Cc1nn(C)c(Nc2c(F)cc(F)cc2Cl)c1-c1ccc(F)cc1Cl [Compound 82, N-(2-chloro-4,6-difluorophenyl)-4-(2-chloro-4-fluorophenyl)-1,3-dimethyl-1H-pyrazol-5-amine] |  |  |  |  |  |  |  |  |  |  |  |  |  |  |  | 0% | 100% | 97% | 100% | 100% | pest or weed control at 200 µg/mL (Botrytis cinerea): 99%; pest or weed control at 200 µg/mL [3]: 100%; pest or weed control at 200 µg/mL (Alternaria solani): 100%
14 | Cc1nn(C)c(Nc2c(F)cc(Cl)cc2Cl)c1-c1ccc(F)cc1F [Compound 161, N-(2,4-dichloro-6-fluorophenyl)-4-(2,4-difluorophenyl)-1,3-dimethyl-1H-pyrazol-5-amine] | 100% | 100% | 100% | 100% | 99% | 100% | 99% |  |  |  |  |  |  |  |  | 0% |  |  |  |  | 
15 | Cc1nn(C)c(Nc2ccc(F)cc2Cl)c1-c1ccc(F)cc1Cl [Compound 47, N,4-bis(2-chloro-4-fluorophenyl)-1,3-dimethyl-1H-pyrazol-5-amine] |  |  |  |  |  |  |  |  |  |  |  |  |  |  |  | 0% | 82% | 93% | 100% | 96% | pest or weed control at 200 µg/mL (Botrytis cinerea): 100%; pest or weed control at 200 µg/mL [3]: 99%; pest or weed control at 200 µg/mL (Alternaria solani): 99%
16 | Cc1nn(C)c(Nc2c(F)cc(F)cc2Br)c1-c1ccc(F)cc1F [Compound 143, N-(2-bromo-4,6-difluorophenyl)-4-(2,4-difluorophenyl)-1,3-dimethyl-1H-pyrazol-5-amine] |  |  |  |  |  |  |  |  |  |  |  |  |  |  |  | 0% | 100% | 100% | 100% | 100% | pest or weed control at 200 µg/mL (Botrytis cinerea): 100%; pest or weed control at 200 µg/mL [3]: 100%; pest or weed control at 200 µg/mL (Alternaria solani): 100%
17 | Cc1nn(C)c(Nc2ccc(C#N)cc2F)c1-c1c(F)cccc1F [compound 59] | 73% | 9% | 99% | 98% | 100% | 98% | 94% |  |  |  |  |  |  |  |  |  |  |  |  |  | Test C rating (disease control) (Phytophthora infestans): 0%
18 | Cc1nn(C)c(Nc2c(F)cc(F)cc2Br)c1-c1c(F)cccc1F [Compound 146, N-(2-bromo-4,6-difluorophenyl)-4-(2,6-difluorophenyl)-1,3-dimethyl-1H-pyrazol-5-amine] |  |  |  |  |  |  |  |  |  |  |  |  |  |  |  | 0% | 100% | 74% | 100% | 100% | pest or weed control at 200 µg/mL [3]: 98%; pest or weed control at 200 µg/mL (Alternaria solani): 100%

Reference: patent US20170150719A1, “FUNGICIDAL PYRAZOLES AND THEIR MIXTURES” (E I DU PONT DE NEMOURS AND COMPANY, priority 2010, published 2017)
